As usually defined, the IC50 is the point on the concentration scale where inhibition reaches its midpoint.

For this experiment, the target named is T1, 15-PGDH de type 1 (Homo sapiens, UniProt P15428).
T1 construct: made in house
T1 sequence (P15428 1-266): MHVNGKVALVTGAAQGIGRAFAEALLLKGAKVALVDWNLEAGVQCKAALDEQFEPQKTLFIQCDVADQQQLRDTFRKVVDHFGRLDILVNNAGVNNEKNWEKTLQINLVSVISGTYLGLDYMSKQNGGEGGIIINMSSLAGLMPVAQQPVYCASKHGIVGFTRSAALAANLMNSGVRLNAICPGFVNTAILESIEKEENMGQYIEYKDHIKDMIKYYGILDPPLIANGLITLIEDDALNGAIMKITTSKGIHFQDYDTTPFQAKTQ
The experiment is described as follows: Test on 15-PGDH type 1: spectrophotometric enzyme inhibition (340 nm, NAD+/PGE2). To be noted: concentration reducing the enzymatic activity of 15-PGDH by 50%; Tris 100 mM pH 7,4, 37°C, 50 µM Prostaglandine E2, 1,5 mM β-NAD. Type of experiment: biochemical. Here is the method: L'enzyme 15-PGDH est obtenue comme décrit dans la demande FR 02/05067 déposée au nom de L'Oréal, en suspension dans un milieu adapté à une concentration de 0,3 mg/mL puis bloquée à - 80°C. Pour les besoins du test, cette suspension est décongelée et stockée dans de la glace.
Par ailleurs on prépare un tampon Tris 100 mM, pH = 7,4, contenant 0,1 mM de dithiothréitol (D5545, Sigma-Aldrich, L'isle D'Abeau Chesne, BP 701, 38297, Saint Quentin Fallavier), 1,5 mM de β-NAD (N6522, Sigma-Aldrich, L'isle D'Abeau Chesne, BP 701, 38297, Saint Quentin Fallavier), 50 µM de Prostaglandine E2 (P4172, Sigma-Aldrich, L'isle D'Abeau Chesne, BP 701, 38297, Saint Quentin Fallavier).
Dans la cuve d'un spectrophotomètre (Perkin-Elmer, Lambda 2) thermostaté à 37°C, dont la longueur d'onde de mesure est réglée à 340 nm, sont introduits 0,965 ml de ce tampon (préalablement porté à 37°C). 0,035 mL de suspension enzymatique à 37°C sont introduits dans la cuve concomitamment à l'enregistrement ( correspondant à une augmentation de la densité optique à 340 nm). La vitesse maximale de réaction est relevée.
Les valeurs essais (contenant les composés de formule (I)) sont comparées à la valeur témoin (sans composé de formule (I)); les résultats indiqués représentent soit le pourcentage d'inhibition de l'activité enzymatique de 15-PGDH pour une concentration donnée de composé de formule (I), soit la concentration à laquelle le composé de formule (I) réduit de 50% l'activité enzymatique de 15-PGDH, à savoir IC50dh.
Consider `O=C1NC(=O)C(Cc2ccccc2Oc2ccc(Cl)cc2Cl)S1` (stereo not shown) [compound 2], for which the IC50 amounted to 1210 nM.

Regarding `O=C1NC(=O)C(Cc2ccccc2Oc2ccccc2)S1` (stereo not shown) [compound 3], the 50% inhibitory concentration (IC50) stood at 2750 nM. Consider `CC(C)(C)c1ccc(Oc2ccccc2CC2SC(=O)NC2=O)cc1` (stereo not shown) [compound 4, 5-[2-(4-tert-butylphenoxy)benzyl]-1,3-thiazolidine-2,4-dione], for which the IC50 came out at 400 nM. With `CC(C)(C)c1ccc(Oc2cccc(CC3SC(=O)NC3=O)c2)cc1` (stereo not shown) [compound 5], the midpoint of inhibition, the IC50, lay at 580 nM.

Source of the values: EP1738742A2, “Benzyl-1,3-thiazolidine-2,4-dione compounds, compositions comprising them and use for stimulating or inducing the growth of keratinic fibres and/or for diminsihing their loss” (L'Oreal, priority 2005, dated 2007).
